Test results reported in patent US20130109682A1, “CYCLIC ETHER COMPOUNDS USEFUL AS KINASE INHIBITORS” (NOVARTIS AG, priority 2010, published 2013).
pEC50, pIC50: −log10 of the molar value.

How the values were obtained:
PIM1 = PIM1 (Homo sapiens, UniProt P11309); assay: KinaseGlo Pim1 ATP depletion assay; format: biochemical
Method in brief: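 2.5 nM PIM1 preincubated 15 min with compound and 40 μM BAD peptide in 50 mM HEPES pH 7.5, 5 mM MgCl2, 1 mM DTT, 0.05% BSA, 2.5% DMSO. The reaction was started with 20 μM ATP (final) and run to about 50% ATP depletion. Remaining ATP read by KinaseGlo Plus luminescence to give IC50.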

PIM2 = PIM2 (Homo sapiens, UniProt Q9P1W9); assay: KinaseGlo Pim2 ATP depletion assay; format: biochemical
PIM2, sequence (Q9P1W9 whole entry): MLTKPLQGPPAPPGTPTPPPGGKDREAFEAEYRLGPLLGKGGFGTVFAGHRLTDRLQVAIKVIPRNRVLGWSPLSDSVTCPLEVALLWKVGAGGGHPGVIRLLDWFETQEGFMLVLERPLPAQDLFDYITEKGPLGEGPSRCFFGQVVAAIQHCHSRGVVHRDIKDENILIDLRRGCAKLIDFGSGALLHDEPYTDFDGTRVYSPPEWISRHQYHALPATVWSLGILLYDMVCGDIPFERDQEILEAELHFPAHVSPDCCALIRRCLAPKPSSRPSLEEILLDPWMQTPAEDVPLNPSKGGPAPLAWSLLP
Method in brief: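 Luminescent ATP-depletion read-out of PIM2 phosphorylating BAD peptide (RSRHSSYPAGT-OH). Final conditions: 5 nM PIM2, 4 μM ATP, 10 μM peptide, 2.5% DMSO in 50 mM HEPES pH 7.5, 5 mM MgCl2, 1 mM DTT, 0.05% BSA. Enzyme–peptide preincubated 15 min with compound; reaction run to ~50% ATP depletion.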

PIM3 = PIM3 (Homo sapiens, UniProt Q86V86); assay: KinaseGlo Pim3 ATP depletion assay; format: biochemical
Method in brief: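 Kinase was preincubated 15 min with BAD peptide in HEPES pH 7.5/MgCl2/DTT/BSA before ATP was added. Final concentrations were 40 μM ATP, 100 μM BAD peptide and 2.5% DMSO, with 5 nM enzyme. The reaction ran to ~50% ATP depletion and remaining ATP was read by KinaseGlo Plus luminescence.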

GSK3β = GSK3β (Homo sapiens, UniProt P49841); assay: GSK3β ATP depletion assay; format: biochemical; conditions: read-out: GSK3b IC50
GSK3β, sequence (P49841 whole entry, species assumed): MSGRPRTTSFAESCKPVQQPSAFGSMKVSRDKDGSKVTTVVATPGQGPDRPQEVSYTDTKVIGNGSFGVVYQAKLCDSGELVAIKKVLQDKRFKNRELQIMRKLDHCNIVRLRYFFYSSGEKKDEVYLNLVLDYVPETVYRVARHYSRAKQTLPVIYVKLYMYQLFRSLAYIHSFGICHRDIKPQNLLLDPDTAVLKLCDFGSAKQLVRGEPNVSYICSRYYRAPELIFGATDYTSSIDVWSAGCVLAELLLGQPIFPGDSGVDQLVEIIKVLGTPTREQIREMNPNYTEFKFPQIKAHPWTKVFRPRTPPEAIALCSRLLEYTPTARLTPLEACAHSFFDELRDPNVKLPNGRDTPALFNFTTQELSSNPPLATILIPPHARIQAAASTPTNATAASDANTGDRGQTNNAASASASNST
Method in brief: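 Human GSK3β (5 nM) preincubated 15 min with 10 μM biotinylated phospho-CREB peptide in pH 7.5 Tris buffer (15 mM MgCl2, 1 mM DTT, 0.1% BSA, 2.5% DMSO). Reaction started with 2 μM ATP and run to about 50% ATP depletion. Remaining ATP measured by KinaseGlo luminescence.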

[1] = tested on: KMS11 (human myeloma cell line); assay: Cell proliferation assay (CellTiter-Glo), KMS11; format: cell-based; conditions: Homo sapiens, KMS-11; KMS11-Luc cells
Procedure: KMS11 (human myeloma cell line), were cultured in IMDM supplemented with 10% FBS, sodium pyruvate and antibiotics. Cells were plated in the same medium at a density of 2000 cells per well into 96 well tissue culture plates, with outside wells vacant, on the day of assay. MMl.s (human myeloma cell line), were cultured in RPMI1640 supplemented with 10% FBS, sodium pyruvate and antibiotics. Cells were plated in the same medium at a density of 5000 cells per well into 96 well tissue culture plates, with outside wells vacant, on the day of assay.
Test compounds supplied in DMSO were diluted into DMSO at 500 times the desired final concentrations before dilution into culture media to 2 times final concentrations. Equal volumes of 2× compounds were added to the cells in 96 well plates and incubated at 37° C. for 3 days.
After 3 days plates were equilibrated to room temperature and equal volume of CellTiter-Glow Reagent (Promega) was added to the culture wells. The plates were agitated briefly and luminescent signal was measured with luminometer.
Using the procedures of Cell Proliferation Assay, the EC50 concentration of indicated compounds of the examples in were determined in KMS11 cells as shown in Table 4.

PIM1, sequence (P11309 whole entry): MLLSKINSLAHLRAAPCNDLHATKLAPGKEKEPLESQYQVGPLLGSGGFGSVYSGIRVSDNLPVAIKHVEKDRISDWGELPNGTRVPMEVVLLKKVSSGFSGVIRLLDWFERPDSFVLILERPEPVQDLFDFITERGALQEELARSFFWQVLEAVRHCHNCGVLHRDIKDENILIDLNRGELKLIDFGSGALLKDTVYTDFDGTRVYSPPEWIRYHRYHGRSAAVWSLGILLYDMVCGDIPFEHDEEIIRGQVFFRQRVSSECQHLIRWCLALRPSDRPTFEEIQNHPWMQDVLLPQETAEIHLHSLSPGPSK

Row | Structure (SMILES) | pIC50 (PIM1) | pIC50 (PIM2) | pIC50 (PIM3) | pIC50 (GSK3β) | pEC50 [1]
1 | C=C1[C@H](O)C[C@H](c2ccncc2NC(=O)c2nc(-c3c(F)cccc3F)ncc2N)OC12CC2 [Example 8, 5-amino-2-(2,6-difluorophenyl)-N-(4-((5R,7R)-7-hydroxy-8-methylene-4-oxaspiro[2.5]octan-5-yl)pyridin-3-yl)pyrimidine-4-carboxamide] | 7.29 | 6.49 | 6.83 | 5.88 | < 5.00
2 | C=C1[C@H](O)C[C@H](c2ccncc2NC(=O)c2ccc(F)c(-c3c(F)cccc3F)n2)OC12CC2 [Example 9, 6-(2,6-difluorophenyl)-5-fluoro-N-(4-((5R,7R)-7-hydroxy-8-methylene-4-oxaspiro[2.5]octan-5-yl)pyridin-3-yl)picolinamide] | 8.31 | 6.81 | 7.60 | 6.34 | < 5.00
3 | C[C@@H]1OC(c2ccncc2NC(=O)c2nc(-c3c(F)cccc3F)ncc2N)=C[C@H](O)[C@@]1(C)O [Example 10, 5-amino-2-(2,6-difluorophenyl)-N-(4-((2S,3R,4S)-3,4-dihydroxy-2,3-dimethyl-3,4-dihydro-2H-pyran-6-yl)pyridin-3-yl)pyrimidine-4-carboxamide] | 7.73 | 7.40 | 7.69 | 5.83 | 5.06
4 | C[C@H]1OC(c2ccncc2NC(=O)c2nc(-c3c(F)cccc3F)ncc2N)=C[C@@H](O)[C@]1(C)O [Example 11, 5-amino-2-(2,6-difluorophenyl)-N-(4-((2R,3S,4R)-3,4-dihydroxy-2,3-dimethyl-3,4-dihydro-2H-pyran-6-yl)pyridin-3-yl)pyrimidine-4-carboxamide] | 9.15 | 8.85 | 8.74 | 6.14 | 6.14
5 | N#C[C@H]1O[C@@H](c2ccncc2NC(=O)c2nc(-c3c(F)cccc3F)c(F)cc2N)C[C@@H](O)[C@@H]1O [Example 12, 3-amino-N-(4-((2R,4R,5S,6R)-6-cyano-4,5-dihydroxytetrahydro-2H-pyran-2-yl)pyridin-3-yl)-6-(2,6-difluorophenyl)-5-fluoropicolinamide] | 9.00 | 8.30 | 8.52 | 6.66 | 5.12
6 | N#C[C@H]1O[C@@H](c2ccncc2NC(=O)c2ccc(F)c(-c3c(F)cccc3F)n2)C[C@@H](O)[C@@H]1O [Example 13, N-(4-((2R,4R,5S,6R)-6-cyano-4,5-dihydroxytetrahydro-2H-pyran-2-yl)pyridin-3-yl)-6-(2,6-difluorophenyl)-5-fluoropicolinamide] | 9.00 | 7.92 | 8.30 | 6.23 | 5.09
7 | Nc1cnc(-c2c(F)cccc2F)nc1C(=O)Nc1cnccc1C1=C[C@@H](O)[C@H](O)[C@@H](CCl)O1 [Example 14, 5-amino-N-(4-((2S,3S,4R)-2-(chloromethyl)-3,4-dihydroxy-3,4-dihydro-2H-pyran-6-yl)pyridin-3-yl)-2-(2,6-difluorophenyl)pyrimidine-4-carboxamide] | 9.00 | 8.70 | 8.52 | 7.15 | 5.58
8 | CC[C@]1(O)[C@H](O)C[C@H](c2ccncc2NC(=O)c2nc(-c3ccccc3)cnc2N)O[C@@H]1C [Example 15, 3-amino-N-(4-((2R,4R,5S,6R)-5-ethyl-4,5-dihydroxy-6-methyltetrahydro-2H-pyran-2-yl)pyridin-3-yl)-6-phenylpyrazine-2-carboxamide] | 9.00 | 8.10 | 8.70 | 9.00 | 6.74

Continued, values first:

Row | pIC50 (PIM1) | pIC50 (PIM2) | pIC50 (PIM3) | pIC50 (GSK3β) | pEC50 [1] | Structure (SMILES)
9 | 8.70 | 8.52 | 8.40 | 7.18 | 5.38 | Nc1cnc(-c2c(F)cccc2F)nc1C(=O)Nc1cnccc1[C@H]1C[C@@H](O)[C@H](O)[C@@H](CCl)O1 [Example 17, 5-amino-N-(4-((2R,4R,5S,6S)-6-(chloromethyl)-4,5-dihydroxytetrahydro-2H-pyran-2-yl)pyridin-3-yl)-2-(2,6-difluorophenyl)pyrimidine-4-carboxamide]
10 | 8.52 | 8.30 | 8.30 | 6.72 | 5.24 | CC[C@H]1O[C@@H](c2ccncc2NC(=O)c2nc(-c3c(F)cccc3F)ncc2N)C[C@@H](O)[C@@H]1O [Example 18, 5-amino-2-(2,6-difluorophenyl)-N-(4-((2R,4R,5S,6R)-6-ethyl-4,5-dihydroxytetrahydro-2H-pyran-2-yl)pyridin-3-yl)pyrimidine-4-carboxamide]
11 | 7.70 | 6.80 | 8.05 | 6.06 | < 5.00 | C=C[C@H]1OC(c2ccncc2NC(=O)c2nc(-c3ccccc3)ncc2N)=C[C@@H](O)[C@@H]1O [Example 22, 5-amino-N-(4-((2R,3S,4R)-3,4-dihydroxy-2-vinyl-3,4-dihydro-2H-pyran-6-yl)pyridin-3-yl)-2-phenylpyrimidine-4-carboxamide]
12 | 8.22 | 7.39 | 8.10 | 6.70 | < 5.00 | C=C[C@H]1OC(c2ccncc2NC(=O)c2ccnc(-c3c(F)cccc3F)n2)=C[C@@H](O)[C@@H]1O [Example 23, 2-(2,6-difluorophenyl)-N-(4-((2R,3S,4R)-3,4-dihydroxy-2-vinyl-3,4-dihydro-2H-pyran-6-yl)pyridin-3-yl)pyrimidine-4-carboxamide]
13 | 9.00 | 8.15 | 8.40 | 6.75 | 5.13 | C=C[C@H]1OC(c2ccncc2NC(=O)c2nc(-c3ccccc3F)c(F)cc2N)=C[C@@H](O)[C@@H]1O [Example 24, 3-amino-N-(4-((2R,3S,4R)-3,4-dihydroxy-2-vinyl-3,4-dihydro-2H-pyran-6-yl)pyridin-3-yl)-5-fluoro-6-(2-fluorophenyl)picolinamide]
14 | 9.00 | 8.70 | 8.70 | 6.18 | 5.87 | C=C[C@H]1OC(c2ccncc2NC(=O)c2nc(-c3c(F)cccc3F)c(F)cc2N)=C[C@@H](O)[C@@H]1O [Example 25, 3-amino-6-(2,6-difluorophenyl)-N-(4-((2R,3S,4R)-3,4-dihydroxy-2-vinyl-3,4-dihydro-2H-pyran-6-yl)pyridin-3-yl)-5-fluoropicolinamide]
15 | 8.40 | 7.54 | 8.70 | 6.56 | < 5.00 | CC[C@]1(O)[C@H](O)C[C@H](c2ccncc2NC(=O)c2nc(-c3ccccc3)ncc2N)O[C@@H]1C [Example 26, 5-amino-N-(4-((2R,4R,5S,6R)-5-ethyl-4,5-dihydroxy-6-methyltetrahydro-2H-pyran-2-yl)pyridin-3-yl)-2-phenylpyrimidine-4-carboxamide]
16 | 8.70 | 8.15 | 8.52 | 7.66 | 6.09 | O=C(Nc1cnccc1C1=C[C@@H](O)[C@H](O)[C@@H](CCl)O1)c1ccnc(-c2c(F)cccc2F)n1 [Example 28, N-(4-((2S,3S,4R)-2-(chloromethyl)-3,4-dihydroxy-3,4-dihydro-2H-pyran-6-yl)pyridin-3-yl)-2-(2,6-difluorophenyl)pyrimidine-4-carboxamide]
